Patent EP4371976B1, “IONIZABLE LIPIDS AND LIPID NANOPARTICLES CONTAINING THEREOF” (Certest Biotec, S.L., priority 2022, dated 2024)

Legend:
[1] = Size distribution, polydispersity and Z-potential of LNPs by dynamic light scattering (Malvern Zetasizer); assay type: physicochemical
Description: The LNP solution was then adjusted to a final concentration of mRNA of 100 µg/ml. Size distribution, polydispersity and Z-potential were measured by dynamic light scattering (DLS) using Malvern Zetasizer Advance Lab Blue Label. RNA encapsulation was assessed by Quant-IT® Ribogreen following the manufacturer's instructions.

[2] = RNA encapsulation efficiency of LNPs by Quant-IT Ribogreen; assay type: physicochemical; conditions: for Encaps. efficiency (%): LNPs with luciferase mRNA, ionizable lipid:non-cationic lipid:sterol:PEG-modified lipid 50:10:38.5:1.5; for Encaps. efficiency: Table 8, LNP 50:10:38.5:1.5, luciferase mRNA
In short: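 Ribogreen dye assay per manufacturer quantified encapsulated mRNA. Particles were made by adding mRNA in water to the ethanol phase, then 1:1 Tris dilution and overnight dialysis into Tris/15% sucrose; final mRNA set to 100 µg/ml.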

[3] = Apparent pKa of LNPs comprising the ionizable lipid (Table 6); conditions: standard formulation 50:10:38.5:1.5
Female BALB/c mice = assay: Firefly luciferase expression (total flux, IVIS imaging) in mice after injection of mRNA-loaded LNPs; assay type: in vivo; conditions: for Total Flux: LNP 50:10:38.5:1.5
Description: For in vivo administration, mRNA comprising in the 5' to 3' direction a sequence encoding for luciferase of SEQ ID NO:1, was encapsulated into LNPs following the procedure described in Hassett, K. J. et al., "Optimization of Lipid Nanoparticles for Intramuscular Administration of mRNA Vaccines", 2019, Mol. Ther. Nucleic Acid, vol. 15, pp. 1-11. Briefly, the purified mRNAs were first diluted in sodium citrate buffer at pH=4 at a final concentration of 266 µg/ml. Separately, a mixture of the ionizable lipid of the invention:DSPC (Merk 850365P):cholesterol (Sigma C3045):DMG-PEG2000 (Cayman 33945-1) were dissolved into ethanol at the respective molar percentages of 50:10:38.5:1.5, and with a lipid-nitrogen-to-phosphate ratio (N:P) ratio of 5,5:1.
The mRNA aqueous solution was then carefully added to the ethanol solution, and the resulted solution was homogenized by pipetting up and down for 4-5 times. The resulting LNPs were immediately diluted 1:1 with Tris buffer and dialyzed overnight against Tris buffer containing 15% sucrose. The resulting LNP solution was then collected, and the encapsulated mRNA was assessed by Quant-IT® Ribogreen (Invitrogen R11490) following the manufacturer's instructions.
Female BALB/c mice (Charles River Laboratories), 8-10-week-old, weighting 18-23 g, were acclimatized to new conditions upon arrival to experimental facilities for 3-7 days. Housing conditions were room temperature 20-24 °C, humidity 50-70 %, and light intensity 60 lux with a light-dark cycle of 12 hours.
For Firefly Luciferase activity measurement in mice, LNPs produced as indicated above (ionizable lipid:helper lipid: sterol:PEG-modified lipid → 50:10:38.5:1.5) and containing 5 µg of the indicated mRNA in 50 µl final volume, were injected intramuscularly.
From 4 to 72 hours after RNA-LPN inoculation mice were anaesthetized by inhalation with 4% of isoflurane using a vaporizer. The maintenance of the anaesthesia was performed at 1.5% of isoflurane. Then, D-luciferin (Quimigen, 12507) was injected intraperitoneally at 150 mg/kg, normally ~200 µL of the stock at 15 mg/mL in PBS for a 20 g mouse. Luciferase images were acquired 10 minutes after luciferin inoculation using the IVIS Lumina XRMS Imaging System following manufacturer's instructions.

HEK293T cells = conditions: reported by Molla et al., cited from earlier work
mice = assay: LNP stability over time: in vivo transfection (total flux) in mice, fresh versus stored at 4 °C; conditions: LNP 50:10:38.5:1.5
Description: Two LNPs comprising: ionizable lipid (Formula I):non-cationic lipid:sterol: PEG-modified lipid
in the ratios 50:10:38.5:1.5 were tested in order to determine their stability. Formulation A comprising VC-LC-0163 as the ionizable lipid was administered to mice and transfection efficiency measured with a fresh preparation in a first experiment, and with a preparation that had been stored for 83 days at T = 4 °C.
Formulation B comprising VC-LC-0263 as the ionizable lipid was administered to mice and transfection efficiency measured with a fresh preparation in a first experiment, and with a preparation that had been stored for 61 days at T = 4 °C.

[4] = LNPs, standard formulation 50:10:38.5:1.5, DLS
[5] = percentage of RNA entrapped in the LNP
[6] = Table 8, mice, intramuscular, 5 µg luciferase mRNA in 50 µl
[7] = Table 10, VC-LC-0431:DOPE:Cholesterol:DMG-PEG2000 50:10:38.5:1.5

Row | Structure (SMILES) | P.D.I. [1, 4] | Particle size/ Ø (nm) [1, 4] [nm] | Z Potential (± D.E.) [mV] [1, 4] [mV] | Encaps. efficiency (%) [2, 5] [%] | Encaps. efficiency [2] [%] | Apparent pKa [3] | Total Flux (Female BALB/c mice; [6]) [p·s^-1] | transfection efficiency (HEK293T cells; HEK293T cells, without addition of helper lipids) | toxicity (HEK293T cells; liposomes, in vitro) | transfection (luminescence) in vivo (Female BALB/c mice; Figure 2, intramuscular injection, LNP 50:10:38.5:1.5 encapsulating luciferase mRNA) | P.D.I. [1, 7] | Particle size/ Ø (nm) [1, 7] | Z Potential (± D.E.) [mV] [1, 7] [mV] | Encapsulation efficiency (%) [2, 7] [%] | Total flux (p·s^-1) (Female BALB/c mice; Table 10, mice, VC-LC-0431:DOPE:Cholesterol:DMG-PEG2000 50:10:38.5:1.5) | Total flux (p·s^-1) (mice; t = 0, fresh preparation) | Total flux (p·s^-1) (mice; t = 61 days, stored at 4 °C) | encapsulation efficiency ([2]; Table 6, percentage of RNA entrapped in the LNP, LNP 50:10:38.5:1.5) [%] | Total Flux (Female BALB/c mice; Table 6, in vivo after injection)
1 | CCCCCCCCCCCCOC(=O)CCSCC(CC(=O)NCCCn1ccnc1)C(=O)OC(CCCCCCCC)CCCCCCCC (stereo not drawn) [VC-LC-0298] | 0.16 | 190.5 | -13.51 | 59.92 | 59.92 | 6.06 | 7.6E+07 |  |  |  |  |  |  |  |  |  |  |  | 
2 | CCCCCCCCCCC(CCCCCCCC)C(=O)NC(CCSCCC(=O)OCCCCCCCC(C)C)C(=O)NC1CCN(C)CC1 (stereo not drawn) [VC-LC-0558] | 0.11 | 155.2 | -6.62 | 50.58 | 50.6 | 5.95 | 7.9E07 |  |  |  |  |  |  |  |  |  |  |  | 
3 | CCCCCCCC/C=C\CCCCCCCCC(=O)CC(CCSSCCCCCCCCCCCC)C(=O)NCCN1CCN(C)CC1 (stereo not drawn) [VC-LC-0588] |  |  |  |  |  |  |  | about 95% | low toxicity | no transfection |  |  |  |  |  |  |  |  | 
4 | CCCCCCCCCCC(CCCCCCCC)C(=O)NC(CCSCCC(=O)OCCCCCC(C)C)C(=O)NCC1CCN(C)CC1 (stereo not drawn) [VC-LC-0515] | 0.12 | 141.7 | 1.90 | 98.61 | 98.61 | 7.26 | 3.0E+07 |  |  |  |  |  |  |  |  |  |  |  | 
5 | CCCCCCCCC(CCCCCC)COC(=O)CCSCCC(NC(=O)C(CCCCCC)CCCCCCCC)C(=O)NC1CCN(C)CC1 (stereo not drawn) [VC-LC-0431] | 0.11 | 196.6 | -0.28 | 60.4 | 60.4 | 5.77 | 9.92E+07 |  |  |  | 0.114 | 196,6 nm | -0.281 | 60.4 | 9.92E+07 |  |  |  | 
6 | CCCCCCCCOC(=O)CCSCC(CC(=O)NCCCn1ccnc1)C(=O)OC(CCCCCCCC)CCCCCCCC (stereo not drawn) [VC-LC-0307] | 0.14 | 178 | -15.15 | 43.89 | 43.9 | 6.11 | 1.47E+08 |  |  |  |  |  |  |  |  |  |  |  | 
7 | CCCCCCCCCCCCCCCCOC(=O)CCSCCC(NC(=O)C(CCCCCC)CCCCCCCC)C(=O)NCCCn1ccnc1 (stereo not drawn) [VC-LC-0263] | 0.13 | 188.6 | -17.30 | 60.70 |  |  |  |  |  |  |  |  |  |  |  | 1.19E+08 | 5.07E+07 |  | 
8 | CCCCCCCC/C=C\CCCCCCCCOC(=O)CCSCC(CC(=O)NC1CCN(C)CC1)C(=O)OCC(CCCCCC)CCCCCCCC (stereo not drawn) [VC-LC-0539] | 0.13 | 176.7 | -1.24 | 85.33 | 85.3 | 6.90 | 3.6E+07 |  |  |  |  |  |  |  |  |  |  |  | 
9 | CCCCCCCCCCCCOC(=O)CCSCCC(C(=O)NC1CCN(C)CC1)C(=O)OC(CCCCCCCC)CCCCCCCC (stereo not drawn) [VC-LC-0440] | 0.10 | 167.4 | -3.61 | 76.52 | 76.5 | 6.75 | 2.42E+07 |  |  |  |  |  |  |  |  |  |  |  | 
10 | CCCCCCCCC(CCCCCCCC)OC(=O)C(CSCCC(=O)OCCCCCC)CC(=O)NCCCN1CCOCC1 (stereo not drawn) [VC-LC-0550] | 0.16 | 173.7 | -14.52 | 26.96 |  | 6.53 |  |  |  |  |  |  |  |  |  |  |  | 26.96 | 3,4·10^7 p·s^-1
11 | CCCCCCCCC(CCCCCC)COC(=O)CCSCCC(NC(=O)C(CCCCCC)CCCCCCCC)C(=O)NCC1CCN(C)CC1 (stereo not drawn) [VC-LC-0491] | 0.17 | 160.8 | -3.40 | 72.06 | 72.1 | 7.07 | 2.37E+07 |  |  |  |  |  |  |  |  |  |  |  | 
12 | CCCCCCCCC(CCCCCCCC)OC(=O)C(CSCCC(=O)OCC(CC)CCCC)CC(=O)NCCCn1ccnc1 (stereo not drawn) [VC-LC-0297] | 0.18 | 193.3 | -11.77 | 46.94 | 46.9 | 5.80 | 2.3E+07 |  |  |  |  |  |  |  |  |  |  |  | 
13 | CCCCCCCCCCCCCCCCCCOC(=O)CCSCC(CC(=O)NCCCN1CCOCC1)C(=O)OC(CCCCCCCC)CCCCCCCC (stereo not drawn) [VC-LC-0546] | 0.14 | 164.2 | -10.43 | 39.62 | 39.6 |  | 2.54E+07 |  |  |  |  |  |  |  |  |  |  |  | 
14 | CCCCCCCCCCCCC(CCCCCCCCCC)COC(=O)CCSCCC(NC(=O)C(CCCCCC)CCCCCCCC)C(=O)NCCN(CC)CC (stereo not drawn) [VC-LC-0487] | 0.17 | 156.3 | -9.59 | 62.43 | 62.43 |  | 6.9E+07 |  |  |  |  |  |  |  |  |  |  |  | 
15 | CCCCCCCCCCCCCOC(=O)CCSCC(CC(=O)NCCCN1CCOCC1)C(=O)OC(CCCCCCCC)CCCCCCCC (stereo not drawn) [VC-LC-0540] | 0.11 | 140.3 | -8.47 | 43.65 | 43.65 |  | 1.3E+08 |  |  |  |  |  |  |  |  |  |  |  | 
16 | CCCCCCCCCCC(CCCCCCCC)C(=O)NC(CCSCCC(=O)OCC(CCCCCC)CCCCCCCC)C(=O)NCC1CCN(C)CC1 (stereo not drawn) [VC-LC-0508] | 0.13 | 152.6 | -2.43 | 91.49 | 91.49 | 7.48 | 1.7E+08 |  |  |  |  |  |  |  |  |  |  |  | 
17 | CCCCCCCCC(CCCCCCCC)OC(=O)C(CSCCC(=O)OCCCCCCCC(C)C)CC(=O)NCCCn1ccnc1 (stereo not drawn) [VC-LC-0296] | 0.13 | 175.8 | -7.19 | 48.51 | 48.5 | 5.62 | 4.7E+07 |  |  |  |  |  |  |  |  |  |  |  | 
18 | CCCCCCCCOC(=O)CCSCC(CC(=O)NCCCN1CCOCC1)C(=O)OC(CCCCCCCC)CCCCCCCC (stereo not drawn) [VC-LC-0551] | 0.15 | 155.3 | -11.66 | 29.06 | 29.06 | 6.51 | 1.1E+08 |  |  |  |  |  |  |  |  |  |  |  | 
